Legend:
Type in all cases: physicochemical
[1] = Test on solubility in water
Text: Solubilities of crystals of intramolecular salts of the compounds of the formulae (II), (III) and (IV) and the corresponding amorphous free bases in water are shown below.

[2] = Solid thermostability test (accelerated test at 80° C. in tightly closed vials); settings: after 4 weeks
Experimental: A solid thermostability test of amorphous free bases and crystals of the compounds represented by the formula (II), the formula (III) and the formula (IV) is shown in Table 1. This test is an accelerated test conducted at 80° C. in tightly closed vials.

[3] = Solid light stability test (25° C., 2000 lux light source, tight-closed vials); settings: after 4 weeks
Experimental: A solid light stability test of amorphous free bases and crystals of the compounds represented by the formula (II), the formula (III) and the formula (IV) is shown in Table 2. This test was carried out at 25° C. under the light source of 2000 luxes in tight-closed vials.

[4] = Hygroscopicity test (moisture sorption analyzer); settings: for Changes in weight under dehumidifying condition (desorption) compared with humidifying condition: desorption versus adsorption of water, FIG. 3 / FIG. 4; for Weight change rate upon humidification: relative humidity changed from 30% to 75% (adsorption process of water)
Text: Comparing the hygroscopicity of amorphous free base of the compound represented by the above formula (II) with that of crystals of hydrochloride of the same compound, the weight of the amorphous free base increased by 7.6% under the moisturized condition (adsorption process of water), while the weight of the crystal increased as slightly as 1.5% in the case where the comparison was done changing the humidity from 30% to 75% which is the humidity for usual preservation. Thus, the weight change rate of the amorphous free base of the compound represented by the formula (II) upon humidification (relative humidity changes from 30% to 75%) was 7.6%. On the other hand, the weight change rate of the crystals of hydrochloride of the compound represented by the formula (II) upon humidification (relative humidity changes from 30% to 75%) was 1.5%, therefore, the influence by humidification was very little.
Hygroscopicity test was conducted by IGAsorp Moisture Sorption Analyzer, manufacture by Hiden Analytical Limited (refer to FIG. 3).

solubility [1] [µg/mL] | Residual Rate (thermostability of solid) [2] [%] | Residual Rate (light stability of solid) [3] [%] | Changes in weight under dehumidifying condition (desorption) compared with humidifying condition [4] | Weight change rate upon humidification [4] [%] | Solubility in water ([1]; listed as Amorphous free base of the compound represented by the formula (II)) | SMILES
≤ 1 | 66.6 | 78.9 | – | – | – | O=C1c2c(c3c4ccc(O)cc4n(C4OC(CO)C(O)C(O)C4O)c3c3[nH]c4cc(O)ccc4c23)C(=O)N1NCc1cccc(CO)n1 (centres unmarked)
≤ 1 | – | – | – | – | – | O=C1c2c(c3c4ccc(O)cc4n(C4OC(CO)C(O)C(O)C4O)c3c3[nH]c4cc(O)ccc4c23)C(=O)N1NCc1ccncc1 (centres unmarked)
10000 to 50000 | – | 94.3 | nearly the same | 1.5 | – | Cl.O=C1c2c(c3c4ccc(O)cc4n(C4OC(CO)C(O)C(O)C4O)c3c3[nH]c4cc(O)ccc4c23)C(=O)N1NCc1ccncc1CO (centres unmarked)
10000 to 50000 | 98.4 | 95.8 | nearly the same | 0.6 | – | Cl.O=C1c2c(c3c4ccc(O)cc4n(C4OC(CO)C(O)C(O)C4O)c3c3[nH]c4cc(O)ccc4c23)C(=O)N1NCc1ccncc1 (centres unmarked)
– | 87.8 | 89.5 | greatly different | 7.6 | not more than 0.001 mg/mL | O=C1c2c(c3c4ccc(O)cc4n(C4OC(CO)C(O)C(O)C4O)c3c3[nH]c4cc(O)ccc4c23)C(=O)N1NCc1ccncc1CO (centres unmarked) [Amorphous free base of the compound of the formula (II)]
– | 82.9 | 84.6 | significantly different | 2.8 | – | O=C1c2c(c3c4ccc(O)cc4n(C4OC(CO)C(O)C(O)C4O)c3c3[nH]c4cc(O)ccc4c23)C(=O)N1NCc1ccncc1 (centres unmarked) [Amorphous free base of the compound of the formula (IV)]
– | – | 95.6 | – | – | – | O=C1c2c(c3c4ccc(O)cc4n(C4OC(CO)C(O)C(O)C4O)c3c3[nH]c4cc(O)ccc4c23)C(=O)N1NCc1ccncc1CO (centres unmarked) [Crystals of free base of the compound of the formula (II)]
– | 99.7 | 99.5 | – | – | – | O=C1c2c(c3c4ccc(O)cc4n(C4OC(CO)C(O)C(O)C4O)c3c3[nH]c4cc(O)ccc4c23)C(=O)N1NCc1ccncc1 (centres unmarked) [Crystals of free base of the compound of the formula (IV)]
– | 99.1 | – | – | – | – | O=C1c2c(c3c4ccc(O)cc4n(C4OC(CO)C(O)C(O)C4O)c3c3[nH]c4cc(O)ccc4c23)C(=O)N1NCc1ccncc1CO (centres unmarked) [Crystals of methanesulfonate of the compound of the formula ]

Reference: patent US20060229264A1, “Crystalline 6-n-pyridylmethylaminoindolocarbazole compounds” (priority 2003, published 2006)
